Legend:
MMPs = assay type: biochemical
BoNT/A = conditions: mouse, in vivo; cited from earlier work

Row | SMILES | covalent inhibition (MMPs) | cellular toxicity (HEK293 cells) | also measured
1 | CS(=O)(=O)SCCCNC(=O)CC(CC(=O)NO)c1ccc(Cl)cc1Cl (stereo not drawn) [Compound 53, S-(3-(3-(2,4-dichlorophenyl)-5-(hydroxyamino)-5-oxopentanamido)propyl) methanesulfonothioate] | no covalent inhibition was observed | did not exhibit cellular toxicity | MMP inhibition (MMPs): inhibits MMPs significantly less than 32
2 | CS(=O)(=O)SCCCCCN(O)C(=O)/C=C/c1ccc(Cl)cc1Cl [Compound 31, (E)-S-(5-(3-(2,4-dichlorophenyl)-N-hydroxyacrylamido)pentyl) methanesulfonothioate] | – | – | IC50 (HEK293 cells): did not inhibit cells to the extent that an IC50 value could be calculated
3 | O=C(/C=C/c1ccc(Cl)cc1Cl)NO [Compound 7, 2,4-dichlorocinnamic hydroxamic acid] | – | – | rescued mice (BoNT/A): 16%; small molecule-associated toxicity (BoNT/A): no small molecule-associated toxicity
4 | CS(=O)(=O)SCCCCCCN(O)C(=O)/C=C/c1ccc(Cl)cc1Cl [Compound 32, (E)-S-(6-(3-(2,4-dichlorophenyl)-N-hydroxyacrylamido)hexyl) methanesulfonothioate] | no covalent inhibition was observed | – | –
5 | CCCCCNC(=O)CC(CC(=O)NO)c1ccc(Cl)cc1Cl (centres unmarked) [Compound 59, 3-(2,4-dichlorophenyl)-N^1-hydroxy-N^5-pentylpentanediamide] | – | did not exhibit cellular toxicity | –
